{"source": "ChEMBL document CHEMBL1201862", "about": "“PubChem BioAssay data set” (2004)", "key": {"Cytochrome P450 2D6": {"molecular_target": "Cytochrome P450 2D6 (Homo sapiens, UniProt P10635)", "sequence (P10635 whole entry)": "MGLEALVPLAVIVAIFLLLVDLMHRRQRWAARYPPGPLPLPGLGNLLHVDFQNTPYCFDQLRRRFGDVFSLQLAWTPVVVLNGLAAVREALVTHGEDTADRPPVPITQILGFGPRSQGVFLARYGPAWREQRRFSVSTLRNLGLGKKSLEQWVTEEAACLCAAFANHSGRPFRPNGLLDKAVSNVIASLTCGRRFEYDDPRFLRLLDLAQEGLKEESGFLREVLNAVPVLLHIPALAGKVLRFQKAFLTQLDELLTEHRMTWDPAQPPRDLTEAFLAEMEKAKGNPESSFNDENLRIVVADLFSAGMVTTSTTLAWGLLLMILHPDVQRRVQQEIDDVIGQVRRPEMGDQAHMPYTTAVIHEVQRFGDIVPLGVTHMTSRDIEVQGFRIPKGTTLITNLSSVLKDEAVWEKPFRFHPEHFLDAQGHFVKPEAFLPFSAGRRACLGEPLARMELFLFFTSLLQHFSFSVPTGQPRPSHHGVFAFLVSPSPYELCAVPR"}, "Streptococcus": {"system": "Streptococcus", "assay": "GAS UMAA2166 growth inhibition – luminescence, BacTiterGlo, counter-screen for streptokinase expression inhibitor project, dose response (AID 1915);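 further: potency for reduction of bacterial viability or growth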", "assay_type": "functional, organism-based"}, "Streptokinase A": {"molecular_target": "T1, Streptokinase A (Streptococcus pyogenes serotype M1, UniProt P10520)", "T1 sequence (P10520 whole entry)": "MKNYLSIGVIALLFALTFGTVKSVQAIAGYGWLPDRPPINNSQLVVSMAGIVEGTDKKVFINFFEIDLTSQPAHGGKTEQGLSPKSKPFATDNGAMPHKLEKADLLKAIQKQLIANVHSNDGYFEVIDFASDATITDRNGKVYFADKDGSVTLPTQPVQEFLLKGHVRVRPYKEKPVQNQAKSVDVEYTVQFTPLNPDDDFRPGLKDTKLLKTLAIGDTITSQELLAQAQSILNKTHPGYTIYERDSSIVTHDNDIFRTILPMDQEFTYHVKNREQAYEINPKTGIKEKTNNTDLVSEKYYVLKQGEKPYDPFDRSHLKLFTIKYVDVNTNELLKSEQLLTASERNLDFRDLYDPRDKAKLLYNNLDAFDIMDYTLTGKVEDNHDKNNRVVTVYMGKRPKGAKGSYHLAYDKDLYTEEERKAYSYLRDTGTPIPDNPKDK", "assay": "viability-normalized secreted streptokinase activity reduction – plasminogen activation absorbance, OD405, dose response (AID 1914);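 further: secreted streptokinase activity via plasminogen activation per viability signal from cell pellet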", "assay_type": "functional, Streptococcus pyogenes M1 GAS"}, "[1]": {"system": "Streptococcus sp. 'group A'", "assay": "Streptococcus pyogenes SK(-)GAS viability under kanamycin – luminescence, BacTiterGlo, confirmation, counter-screen for streptokinase expression inhibitor project, dose response (AID 1900)", "assay_type": "functional, organism-based"}, "[2]": {"molecular_target": "T2, Heat shock factor protein 1 (Mus musculus, UniProt P38532)", "T2 sequence (P38532 whole entry)": "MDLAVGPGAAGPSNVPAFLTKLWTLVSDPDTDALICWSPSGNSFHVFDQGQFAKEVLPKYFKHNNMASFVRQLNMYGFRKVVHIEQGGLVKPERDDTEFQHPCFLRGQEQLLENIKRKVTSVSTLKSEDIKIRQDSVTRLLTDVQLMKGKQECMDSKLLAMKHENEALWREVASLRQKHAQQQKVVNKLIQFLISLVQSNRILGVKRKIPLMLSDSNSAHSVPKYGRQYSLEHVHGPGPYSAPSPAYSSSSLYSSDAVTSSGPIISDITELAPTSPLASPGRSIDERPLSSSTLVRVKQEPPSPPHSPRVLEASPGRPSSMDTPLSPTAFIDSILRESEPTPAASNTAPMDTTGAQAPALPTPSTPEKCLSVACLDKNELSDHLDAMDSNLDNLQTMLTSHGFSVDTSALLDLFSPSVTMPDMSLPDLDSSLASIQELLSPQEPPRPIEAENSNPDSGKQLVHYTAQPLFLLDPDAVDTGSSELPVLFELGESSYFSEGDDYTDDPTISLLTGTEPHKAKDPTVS", "assay": "decrease of HSF1-responsive luciferase luminescence – cell-based, NIH3T3, dose retest, confirmation (AID 2382);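 further: NIH3T3 fibroblasts with HSF1-driven luciferase reporter stressed by proteasome inhibitor MG132; luminescence from HSF1-driven luciferase expression after 8 hours of MG132 stress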", "assay_type": "functional"}, "[3]": {"molecular_target": "T3, Rac GTPase-activating protein 1 (Homo sapiens, UniProt Q9H0H5)", "T3 sequence (Q9H0H5 whole entry)": "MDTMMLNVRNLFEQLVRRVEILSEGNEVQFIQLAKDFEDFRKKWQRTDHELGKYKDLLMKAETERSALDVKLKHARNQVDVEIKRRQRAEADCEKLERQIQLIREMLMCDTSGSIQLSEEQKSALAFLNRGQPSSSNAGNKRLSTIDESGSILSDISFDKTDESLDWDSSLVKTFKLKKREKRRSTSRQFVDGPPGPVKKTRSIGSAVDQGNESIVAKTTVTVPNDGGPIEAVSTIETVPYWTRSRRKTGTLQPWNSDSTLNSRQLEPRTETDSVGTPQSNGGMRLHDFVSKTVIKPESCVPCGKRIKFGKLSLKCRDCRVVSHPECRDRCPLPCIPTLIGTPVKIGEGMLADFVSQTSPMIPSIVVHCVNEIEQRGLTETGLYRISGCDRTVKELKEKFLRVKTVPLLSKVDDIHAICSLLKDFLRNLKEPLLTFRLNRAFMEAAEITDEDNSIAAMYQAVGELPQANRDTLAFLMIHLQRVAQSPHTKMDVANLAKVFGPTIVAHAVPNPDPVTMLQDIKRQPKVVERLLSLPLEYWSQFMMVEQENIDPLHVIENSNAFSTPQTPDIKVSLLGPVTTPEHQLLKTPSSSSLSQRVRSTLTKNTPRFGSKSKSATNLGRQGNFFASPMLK", "assay": "blockers of MgcRacGAP-driven Rac1 GTP hydrolysis – biochemical, ADP Hunter fluorescence, primary and confirmatory, confirmation (AID 624330)", "assay_type": "functional"}, "Cytochrome P450 1A2": {"molecular_target": "T4, Cytochrome P450 1A2 (Homo sapiens, UniProt P05177)", "T4 sequence (P05177 whole entry)": "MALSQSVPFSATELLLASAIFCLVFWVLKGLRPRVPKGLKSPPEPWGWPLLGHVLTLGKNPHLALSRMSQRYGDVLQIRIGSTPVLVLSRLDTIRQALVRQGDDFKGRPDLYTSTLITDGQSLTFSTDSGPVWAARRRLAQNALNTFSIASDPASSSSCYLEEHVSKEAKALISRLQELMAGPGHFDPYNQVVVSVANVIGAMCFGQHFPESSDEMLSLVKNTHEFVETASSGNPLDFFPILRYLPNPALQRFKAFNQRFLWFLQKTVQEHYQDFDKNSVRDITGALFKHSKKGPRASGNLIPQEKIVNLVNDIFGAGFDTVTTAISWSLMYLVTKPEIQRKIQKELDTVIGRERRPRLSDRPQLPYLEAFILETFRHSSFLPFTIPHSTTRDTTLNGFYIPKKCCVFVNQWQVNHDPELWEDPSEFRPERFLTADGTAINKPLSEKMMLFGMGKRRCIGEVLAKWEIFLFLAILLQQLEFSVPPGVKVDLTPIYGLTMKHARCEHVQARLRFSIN"}, "Cytochrome P450 2C19": {"molecular_target": "Cytochrome P450 2C19 (Homo sapiens, UniProt P33261)", "sequence (P33261 whole entry)": "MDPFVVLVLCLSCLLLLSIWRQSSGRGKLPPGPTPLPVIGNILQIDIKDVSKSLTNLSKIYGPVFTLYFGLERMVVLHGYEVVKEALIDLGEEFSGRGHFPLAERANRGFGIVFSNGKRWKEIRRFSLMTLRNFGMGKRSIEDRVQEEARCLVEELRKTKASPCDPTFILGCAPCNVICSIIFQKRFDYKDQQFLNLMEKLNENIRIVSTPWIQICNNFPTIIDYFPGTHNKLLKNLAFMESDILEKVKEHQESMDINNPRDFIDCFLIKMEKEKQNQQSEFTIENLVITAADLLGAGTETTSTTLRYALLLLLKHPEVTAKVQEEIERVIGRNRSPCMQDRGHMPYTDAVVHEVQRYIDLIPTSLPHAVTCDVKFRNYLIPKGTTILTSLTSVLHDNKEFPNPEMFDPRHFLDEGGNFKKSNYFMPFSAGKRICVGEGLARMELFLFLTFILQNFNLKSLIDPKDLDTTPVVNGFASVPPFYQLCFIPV", "assay": "Cytochrome panel assay with activity outcomes. Panel member name: p450-cyp2c19 Compounds with AC50 equal or less than 10 uM are considered active", "assay_type": "functional"}, "[4]": {"assay": "NIH3T3 cell viability loss – ATP luminescence, mouse fibroblasts, counter-screen, dose response (AID 2010);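 further: cells exposed to compound for about 90 hours before reading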", "assay_type": "functional, cell-based"}, "[5]": {"assay": "Trypanosoma cruzi growth suppression in host cells – NIH3T3 host cells, beta-gal luminescence, confirmation (AID 2044);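 further: intracellular parasites grown in NIH/3T3 mouse fibroblasts as host cells; luminescent beta-galactosidase reporter signal from transgenic T. cruzi replicating inside host cells; inhibitors lower the luminescence signal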", "assay_type": "functional, cell-based"}}, "note": "Calls of active or inactive are those of the source.", "data": [{"smiles": "Cc1nc2cnc(Oc3ccccc3)nc2n(Cc2cccs2)c1=O", "values": [{"measurement": "AC50", "setting": "Cytochrome P450 2D6", "result": "31.6 µM (inconclusive)"}]}, {"smiles": "O=C(NCCCn1ccnc1)c1nn2c(C(F)(F)F)cc(-c3ccccc3)nc2c1Cl", "values": [{"measurement": "EC50", "setting": "Streptococcus", "result": "> 150 µM (not active)"}, {"measurement": "EC50", "setting": "Streptokinase A", "result": "> 150 µM (not active)"}, {"measurement": "EC50", "setting": "[1]", "result": "> 150 µM (not active)"}]}, {"smiles": "O=C(N/N=C/c1ccc(F)cc1)c1ccc(OCc2ccccc2)cc1", "values": [{"measurement": "EC50", "setting": "[2]", "result": "> 195 µM (not active)"}]}, {"smiles": "O=C(O)c1cccc(NC(=S)NC(=O)c2ccc3ccccc3c2)c1", "values": [{"measurement": "EC50", "setting": "[2]", "result": "20.6 µM (active)"}]}, {"smiles": "Cc1ccc(OCc2nnc(SC(C)C(=O)O)n2-c2ccccc2)cc1", "note": "(stereo not given)", "values": [{"measurement": "EC50", "setting": "[2]", "result": "> 195 µM (not active)"}]}, {"smiles": "c1csc(CNc2ccc3c(c2)OCCO3)c1", "values": [{"measurement": "IC50", "setting": "[3]", "result": "46.4 µM (active)"}]}, {"smiles": "O=S(=O)(c1ccc(Cl)s1)N1CCc2ccccc2C1", "values": [{"measurement": "AC50", "setting": "Cytochrome P450 2D6", "result": "31.6 µM (inconclusive)"}, {"measurement": "AC50", "setting": "Cytochrome P450 1A2", "result": "25.1 µM (inconclusive)"}]}, {"smiles": "CCOc1cc(/C=N\\NC(=O)c2c(C)nc3ccccn23)ccc1O", "values": [{"measurement": "IC50", "setting": "[3]", "result": "76 µM (active)"}]}, {"smiles": "Clc1ccc(OCC#CCN2CCCCCC2)cc1", "values": [{"measurement": "IC50", "setting": "[3]", "result": "184 µM (active)"}]}, {"smiles": "COc1ccccc1-c1cc(NCc2cccc(C)c2)ncn1", "values": [{"measurement": "AC50", "setting": "Cytochrome P450 2D6", "result": "20 µM (inconclusive)"}]}, {"smiles": "CSCC[C@H](NC(=O)N1CCn2c1nc1ccccc12)C(=O)NC1CC1", "values": [{"measurement": "EC50", "setting": "[2]", "result": "> 195 µM (not active)"}]}, {"smiles": "O=C(Nc1cccc(F)c1)N1CC2(CCN(C(=O)c3ccncc3)CC2)C1", "values": [{"measurement": "AC50", "setting": "Cytochrome P450 2C19", "result": "inconclusive"}]}, {"smiles": "Cc1ccc(CCC(=O)Nc2ccc(N(C)C)cc2)o1", "values": [{"measurement": "IC50", "setting": "[3]", "result": "45.1 µM (active)"}]}, {"smiles": "CCOc1ccc(NC(=O)C2CCCN(c3nn4c(=O)cc(C)nc4s3)C2)cc1", "note": "(stereo not given)", "values": [{"measurement": "EC50", "setting": "[2]", "result": "> 195 µM (not active)"}]}, {"smiles": "O=C(O)CSc1ncnc2sc3c(c12)CCC3", "values": [{"measurement": "AC50", "setting": "Cytochrome P450 1A2", "result": "28.2 µM (inconclusive)"}, {"measurement": "AC50", "setting": "Cytochrome P450 2C19; read-out: AC50", "result": "39.8 µM (inconclusive)"}]}, {"smiles": "COc1cc(CN2CCC(C(=O)NC3CCCC3)CC2)cc(Br)c1O", "values": [{"measurement": "IC50", "setting": "[3]", "result": "127 µM (active)"}]}, {"smiles": "Cc1noc(C)c1COc1ccc(C(=O)OCC(=O)Nc2c(C)n(C)n(-c3ccccc3)c2=O)cc1", "values": [{"measurement": "EC50", "setting": "[2]", "result": "> 195 µM (not active)"}]}, {"smiles": "COc1ccc(CCNC(=O)c2ccc3c(=O)n(Cc4ccco4)c(=S)[nH]c3c2)cc1OC", "values": [{"measurement": "AC50", "setting": "Cytochrome P450 2C19; read-out: AC50", "result": "7.94 µM (inconclusive)"}]}, {"smiles": "Cc1nc(Nc2ccc3c(c2)OCCO3)c2nnn(Cc3ccccc3Cl)c2n1", "values": [{"measurement": "EC50", "setting": "[4]", "result": "> 60 µM (not active)"}, {"measurement": "EC50", "setting": "[2]", "result": "3.43 µM (active)"}, {"measurement": "EC50", "setting": "[5]", "result": "2.74 µM (active)"}]}, {"smiles": "COc1ccc(-c2ncn(CCC#N)c2[N+](=O)[O-])cc1", "values": [{"measurement": "EC50", "setting": "Streptococcus", "result": "5.92 µM (active)"}, {"measurement": "EC50", "setting": "Streptokinase A", "result": "> 150 µM (not active)"}, {"measurement": "EC50", "setting": "[1]", "result": "3.52 µM (active)"}]}, {"smiles": "c1ccc2c(NC3CCNCC3)nc(-c3ccoc3)nc2c1", "values": [{"measurement": "AC50", "setting": "Cytochrome P450 2D6", "result": "7.94 µM (inconclusive)"}]}, {"smiles": "CCOC(=O)C1CCN(c2c(NCc3ccc(C(=O)Nc4ccc(C)cc4)cc3)c(=O)c2=O)CC1", "values": [{"measurement": "EC50", "setting": "[2]", "result": "> 195 µM (not active)"}]}, {"smiles": "Clc1ccccc1C(Nc1ncccn1)Nc1ncccn1", "values": [{"measurement": "AC50", "setting": "Cytochrome P450 2C19", "result": "inconclusive"}]}, {"smiles": "CC(C)/C(=N/Nc1ccccc1[N+](=O)[O-])c1ccccc1", "values": [{"measurement": "EC50", "setting": "Streptococcus", "result": "52.5 µM (active)"}, {"measurement": "EC50", "setting": "Streptokinase A", "result": "18.4 µM (active)"}, {"measurement": "EC50", "setting": "[1]", "result": "6.63 µM (active)"}]}, {"smiles": "COc1cccc(-n2ccnc2SCC(=O)Nc2ccccc2F)c1", "values": [{"measurement": "EC50", "setting": "[2]", "result": "> 195 µM (not active)"}]}]}
